Reference: ChEMBL document CHEMBL5257030, “Antioxidant, anticancer activities and mechanistic studies of the flavone glycoside diosmin and its oxidovanadium(IV) complex. Interactions with bovine serum albumin” (Bioorg Med Chem, 2016)
Activity calls are given as the source filed them. No cut-off for these calls is given here.

Experiments:
[1] = test system: T47D; assay: Cytotoxicity against human T47D cells assessed as disruption of mitochondrial membrane potential by measuring TMRM level in mitochondria at 10 uM after 24 hrs by fluorescence assay relative to control; format: functional
[2] = target: T1, Albumin (Bos taurus, UniProt P02769); assay: Binding affinity to bovine serum albumin assessed as Stem-Volmer quenching constant at 298 K after 1 hr by luminescence spectrometric analysis; details: cattle
T1 sequence (P02769 whole entry): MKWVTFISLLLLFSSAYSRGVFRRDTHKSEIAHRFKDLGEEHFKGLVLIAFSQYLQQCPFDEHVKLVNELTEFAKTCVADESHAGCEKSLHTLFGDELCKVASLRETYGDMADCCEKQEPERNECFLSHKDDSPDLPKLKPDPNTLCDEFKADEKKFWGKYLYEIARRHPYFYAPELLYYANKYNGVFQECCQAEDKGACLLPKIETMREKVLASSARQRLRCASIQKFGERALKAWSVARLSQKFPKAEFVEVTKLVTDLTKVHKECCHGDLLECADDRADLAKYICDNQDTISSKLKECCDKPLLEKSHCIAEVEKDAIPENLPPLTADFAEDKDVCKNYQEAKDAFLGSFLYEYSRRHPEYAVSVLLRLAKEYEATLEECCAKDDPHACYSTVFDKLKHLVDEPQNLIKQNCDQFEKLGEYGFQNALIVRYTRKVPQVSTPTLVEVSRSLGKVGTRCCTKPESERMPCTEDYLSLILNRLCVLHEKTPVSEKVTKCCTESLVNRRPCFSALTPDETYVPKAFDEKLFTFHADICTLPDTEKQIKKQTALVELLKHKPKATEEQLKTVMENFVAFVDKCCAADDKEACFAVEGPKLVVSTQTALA

[3] = Antioxidant activity assessed as DPPH radical scavenging activity at 100 uM incubated for 60 mins in dark relative to control; format: functional
[4] = target: T1, Albumin; assay: Binding affinity to bovine serum albumin assessed as association constant at 298 K after 1 hr by luminescence spectrometric analysis; details: cattle
[5] = Antioxidant activity assessed as reduction in PMS induced superoxide anion activity preincubated for 15 mins followed by PMS addition and measured after 5 mins by NBT assay; format: functional; details: time 20.0 min
[6] = test system: SK-BR-3; assay: Cytotoxicity against human SK-BR-3 cells assessed as caspase3/7 activation at 10 uM after 24 hrs by fluorescence assay relative to control; format: functional
[7] = target: T1, Albumin; assay: Binding affinity to bovine serum albumin assessed as association constant at 310 K after 1 hr by luminescence spectrometric analysis; details: cattle
[8] = target: T1, Albumin; assay: Binding affinity to bovine serum albumin assessed as change in enthalpy; details: cattle
[9] = target: T1, Albumin; assay: Binding affinity to bovine serum albumin assessed as quenching rate constant at 303 K after 1 hr by luminescence spectrometric analysis; details: cattle
[10] = test system: A549; assay: Cytotoxicity against human A549 cells assessed as reduction in cell viability up to 100 uM measured after 24 hrs by crystal violet staining based assay; format: functional
[11] = Antioxidant activity assessed as reduction in ascorbate-iron-H2O2-mediated hydroxy radical generation at 100 uM after 30 mins by thiobarbituric acid method; format: functional
[12] = test system: T47D; assay: Antiproliferative activity against human T47D cells assessed as inhibition of cell growth measured after 24 hrs by MTT assay; format: functional, cell-based
[13] = target: T1, Albumin; assay: Binding affinity to bovine serum albumin assessed as quenching rate constant at 298 K after 1 hr by luminescence spectrometric analysis; details: cattle
[14] = test system: MDA-MB-231; assay: Cytotoxicity against human MDA-MB-231 cells assessed as disruption of mitochondrial membrane potential by measuring TMRM level in mitochondria at 10 uM after 24 hrs by fluorescence assay relative to control; format: functional
[15] = test system: A549; assay: Cytotoxicity in human A549 cells assessed as increase in DHR123 oxidation to form rhodamine 123 measured after 30 mins by fluorescence spectroscopy; format: functional, cell-based
[16] = test system: SK-BR-3; assay: Cytotoxicity against human SK-BR-3 cells assessed as disruption of mitochondrial membrane potential by measuring TMRM level in mitochondria at 10 uM after 24 hrs by fluorescence assay relative to control; format: functional
[17] = target: T1, Albumin; assay: Binding affinity to bovine serum albumin assessed as Stem-Volmer quenching constant at 310 K after 1 hr by luminescence spectrometric analysis; details: cattle
[18] = test system: T47D; assay: Cytotoxicity against human T47D cells assessed as ROS production at 10 uM after 24 hrs by CMH2DCFDA probe-based fluorescence assay relative to control; format: functional
[19] = test system: MDA-MB-231; assay: Cytotoxicity against human MDA-MB-231 cells assessed as caspase3/7 activation at 10 uM after 24 hrs by fluorescence assay relative to control; format: functional
[20] = target: T1, Albumin; assay: Binding affinity to bovine serum albumin assessed as quenching rate constant at 310 K after 1 hr by luminescence spectrometric analysis; details: cattle
[21] = test system: A549; assay: Antiproliferative activity against human A549 cells after 72 hrs by Alamar blue assay; format: functional, cell-based; details: A549, 72 h
[22] = test system: SK-BR-3; assay: Cytotoxicity against human SK-BR-3 cells assessed as ROS production at 10 uM after 24 hrs by CMH2DCFDA probe-based fluorescence assay relative to control; format: functional
[23] = test system: SK-BR-3; assay: Antiproliferative activity against human SK-BR-3 cells assessed as inhibition of cell growth measured after 24 hrs by MTT assay; format: functional, cell-based; details: SK-BR-3, 24 h
[24] = Antioxidant activity assessed as delay in time of AAPH-induced pyranine consumption at 100 uM by spectrophotometric analysis; format: functional
[25] = test system: MDA-MB-231; assay: Antiproliferative activity against human MDA-MB-231 cells assessed as inhibition of cell growth measured after 24 hrs by MTT assay; format: functional, cell-based; details: MDA-MB-231, 24 h
[26] = target: T1, Albumin; assay: Binding affinity to bovine serum albumin assessed as free energy change at 310 K; details: cattle
[27] = target: T1, Albumin; assay: Binding affinity to bovine serum albumin assessed as free energy change at 303 K; details: cattle
[28] = test system: T47D; assay: Cytotoxicity against human T47D cells assessed as caspase3/7 activation at 10 uM after 24 hrs by fluorescence assay relative to control; format: functional
[29] = target: T1, Albumin; assay: Binding affinity to bovine serum albumin assessed as association constant at 303 K after 1 hr by luminescence spectrometric analysis; details: cattle
[30] = test system: MDA-MB-231; assay: Cytotoxicity against human MDA-MB-231 cells assessed as ROS production at 10 uM after 24 hrs by CMH2DCFDA probe-based fluorescence assay relative to control; format: functional
[31] = target: T1, Albumin; assay: Binding affinity to bovine serum albumin assessed as Stem-Volmer quenching constant at 303 K after 1 hr by luminescence spectrometric analysis; details: cattle
[32] = target: T1, Albumin; assay: Binding affinity to bovine serum albumin assessed as free energy change at 298 K; details: cattle

SMILES: COc1ccc(-c2cc(=O)c3c(O)cc(O[C@@H]4O[C@H](CO[C@@H]5O[C@@H](C)[C@H](O)[C@@H](O)[C@H]5O)[C@@H](O)[C@H](O)[C@H]4O)cc3o2)cc1O [DIOSMIN]
- Activity [1]: 96%
- KSV [2]: 3.08 10^4L/mol
- Activity [3]: 14%
- Ka [4]: 1.84 10^4L/mol
- Activity [5]: inactive
- Activity [6]: 116%
- Ka [7]: 0.19 10^4L/mol
- deltaH [8]: -35.057 kcal/mol
- Kq [9]: 1.95 10^12L/mol/s
- Activity [10]: inactive
- Activity [11]: inactive
- IC50 [12]: > 100 µM
- Kq [13]: 3.08 10^12L/mol/s
- Activity [14]: 104%
- Activity [15]: inactive
- Activity [16]: 78%
- KSV [17]: 1.18 10^4L/mol
- Activity [18]: 105%
- Activity [19]: 106%
- Kq [20]: 1.18 10^12L/mol/s
- IC50 [21]: > 40 µM
- Activity [22]: 104%
- IC50 [23]: > 100 µM
- TIME [24]: 0.0233 h
- IC50 [25]: 70 µM
- deltaG [26]: -4.687 kcal/mol
- deltaG [27]: -5.373 kcal/mol
- Activity [28]: 99%
- Ka [29]: 0.88 10^4L/mol
- Activity [30]: 110%
- KSV [31]: 1.95 10^4L/mol
- deltaG [32]: -5.863 kcal/mol
